Values quoted from earlier work, collected in patent publication US8247398B2, “Zinc complexes of natural amino acids for treating elevated copper caused toxicities” (SSV Therapeutics, Inc., priority 2007, dated 2012).

N[C@@H](Cc1c[nH]cn1)C(=O)O.[Zn] [zinc histidine]
metallothionein production in livers (metallothionein; oral administration, male Wistar rat livers, within 12 hours): 14-39 fold over control group

O=S(=O)([O-])[O-].[Zn+2] [Zinc sulfate, zinc sulfate]
patient discomfort compared with zinc acetate (Wilson's disease therapy): even more patient discomfort

zinc dipicolinate
metallothionein induction in the epidermis, sebaceous glands and hair follicles (metallothionein; same test as zinc histidine chelate (rats)): substantially raised

CC(=O)[O-].CC(=O)[O-].[Zn+2] [zinc acetate]
patients encountering persistent gastric irritation, burning sensation, and nausea (patients receiving zinc acetate therapy): About 10% | time before therapy is tolerable to the patient (taken on an empty stomach or in-between meals): several days or weeks
